Test system: BBMVE cell monolayer challenged with DutchAβ40
Experiment: Cytokines inhibition study (IL-6, IL-1β, TNF-α ELISA)
Assay type: cell-based, bovine
Details: 24 hr; TNV=1.74 mg/ml, DutchAβ40=25 μg/ml, cyclophosphamide=3.05 mg/ml
Method: At the end of 24 hour treatment, the luminal or abluminal solutions of the control and the treated Transwells® was assayed for IL-6, IL-1β and TNF-α using cytokine enzyme linked immunosorbent assay (ELISA) kit (Thermo Scientific, Rockford, Ill.). The cytokine levels secreted by the control BBMVE cell monolayer incubated with hanks balanced salt solution (HBSS) were used as the baseline values.

O=P1(N(CCCl)CCCl)NCCCO1 (stereo not shown) [cyclophosphamide]
secretion of IL-6, IL-1β and TNF-α triggered by DutchAβ40, luminal side: significant decrease

— patent US9950002B2, “Nanoparticles/theranostic vehicles” (Regents of the University of Minnesota, priority 2013, dated 2018)
